Key:
Type in all cases: functional
[1] = Inhibition of LPS-induced IL-6 production in wild-type C57BL/6 mouse BMDC pretreated with compound for 1 hr before LPS treatment measured 16 hrs by ELISA
[2] = Inhibition of LPS-induced TNF-alpha production in wild-type C57BL/6 mouse BMDC pretreated with compound for 1 hr before LPS treatment measured 16 hrs by ELISA
[3] = Inhibition of LPS-induced IL-12 p40 production in wild-type C57BL/6 mouse BMDC pretreated with compound for 1 hr before LPS treatment measured 16 hrs by ELISA

Row | IC50 [1] | IC50 [2] | IC50 [3] | Compound
1 | > 50 µM | > 50 µM | > 50 µM | COc1cc([C@H]2OC[C@H]3[C@@H]2CO[C@@H]3c2cc(OC)c(O[C@@H]3O[C@H](CO)[C@@H](O)[C@H](O)[C@H]3O)c(OC)c2)cc(OC)c1O
2 | > 50 µM | > 50 µM | > 50 µM | COc1cc(-c2oc3cc(O)cc(O)c3c(=O)c2O[C@@H]2O[C@H](CO)[C@@H](O)[C@H](O)[C@H]2O)ccc1O
3 | > 50 µM | > 50 µM | > 50 µM | CC1=C(CC[C@H](C)O)C(C)(C)C[C@H](O[C@@H]2O[C@H](CO)[C@@H](O)[C@H](O)[C@H]2O)C1
4 | > 50 µM | > 50 µM | > 50 µM | CC(C)(O)[C@H]1CC[C@@]2(C)[C@@H]3C[C@@H](O[C@@H]4O[C@H](CO)[C@@H](O)[C@H](O)[C@H]4O)[C@]2(C)[C@H](O)C31
5 | > 50 µM | > 50 µM | > 50 µM | CC1=CC(=O)CC(C)(C)[C@H]1CC[C@H](C)O[C@@H]1O[C@H](CO)[C@@H](O)[C@H](O)[C@H]1O
6 | > 50 µM | 28.7 µM | > 50 µM | COc1cc([C@@H](O)[C@H](O)CO)cc(OC)c1O (relative stereo)
7 | > 50 µM | > 50 µM | > 50 µM | COc1cc([C@@H](O)[C@@H](O)CO)cc(OC)c1O (relative stereo)
8 | 0.07 µM | 49.9 µM | > 50 µM | CC1=CC(=O)CC(C)(C)[C@@]1(O)/C=C/[C@H](C)O[C@@H]1O[C@H](CO)[C@@H](O)[C@H](O)[C@H]1O [6S,9S-ROSEOSIDE]
9 | > 50 µM | > 50 µM | > 50 µM | Oc1cc(O)c2c(c1)O[C@H](c1ccc(O)c(O)c1)[C@H](O)C2 [(-)-EPICATECHIN]
10 | > 50 µM | > 50 µM | > 50 µM | C[C@@H]1O[C@@H](Oc2c(-c3ccc(O)cc3)oc3cc(O)cc(O)c3c2=O)[C@H](O)[C@H](O)[C@H]1O [AFZELIN]
11 | > 50 µM | > 50 µM | > 50 µM | O=C(O)/C=C/c1ccc(O)c(O)c1 [CAFFEIC ACID]
12 | > 50 µM | > 50 µM | > 50 µM | O=C(/C=C/c1ccc(O)c(O)c1)O[C@@H]1C[C@](O)(C(=O)O)C[C@@H](O)[C@H]1O [CHLOROGENIC ACID]
13 | > 50 µM | > 50 µM | > 50 µM | Oc1cc(O)c2c(c1)O[C@H](c1ccc(O)c(O)c1)[C@@H](O)C2 [CIANIDANOL]
14 | > 50 µM | > 50 µM | > 50 µM | O=c1c(O[C@@H]2O[C@H](CO)[C@@H](O)[C@H](O)[C@H]2O)c(-c2ccc(O)c(O)c2)oc2cc(O)cc(O)c12 [ISOQUERCETIN]
15 | > 50 µM | > 50 µM | > 50 µM | COc1cc(-c2oc3cc(O)cc(O)c3c(=O)c2O[C@@H]2O[C@H](CO[C@@H]3O[C@@H](C)[C@H](O)[C@@H](O)[C@H]3O)[C@@H](O)[C@H](O)[C@H]2O)ccc1O [NARCISSIN]
16 | > 50 µM | > 50 µM | > 50 µM | O=C(O)c1ccc(O)c(O)c1 [PROTOCATECHUIC ACID]
17 | > 50 µM | > 50 µM | > 50 µM | C[C@@H]1O[C@@H](OC[C@H]2O[C@@H](Oc3c(-c4ccc(O)c(O)c4)oc4cc(O)cc(O)c4c3=O)[C@H](O)[C@@H](O)[C@@H]2O)[C@H](O)[C@H](O)[C@H]1O [RUTIN]
